# In patent US8900444B2, “Switchable hydrophilicity solvents and methods of use thereof” (Queen's University at Kingston, priority 2009, dated 2014):
# Assays:
# Type in all cases: physicochemical
# [1] = Miscibility of amines with water in the presence of CO2 (Example 5B); settings: CO2 bubbled through amine/water mixture for at least one hour
# Procedure: All of the amines that formed a biphasic mixture in Example 5A were subjected to the following test. Carbon dioxide was bubbled through the amine/water biphasic mixture, via a syringe needle, for at least one hour. Care was taken to regulate the rate of the CO2 bubbling, so as not to cause evaporation of the amine. The liquid-liquid interface was observed over the course of CO2 bubbling, and a photo was taken after 60 minutes.
# [2] = Conversion of amine switchable hydrophilicity solvents back to hydrophobic form by heating (Example 5C); settings: for loss of amine during heating (excessive volatility): 80 °C, approximately 60 minutes
# Procedure: All of the amines identified as switchable hydrophilicity solvents in Example 5B (except N,N-dimethylbutylamine) were subjected to the following test. The vial containing the single-phase amine/water/CO2 mixture prepared in example 5B was heated in an oil bath at 80° C. for approximately 60 minutes. The mixture was magnetically stirred, and phase separation was observed throughout the course of heating. In the case of the N1,N1,N4,N4-tetraethylbutane-1,4-diamine/water/CO2 mixture, 5 hours of heating was required to switch it back to its hydrophobic form.
# [3] = Miscibility of amines with water in the absence of CO2 (Example 5A); settings: 1 mL amine + 1 mL H2O, room temperature, visual
# Procedure: 1 mL of an appropriate amine was combined with 1 mL of H2O in a 4 mL vial, with the 1 and 2 mL volume lines marked. The vial was manually shaken and left to settle at room temperature. After the mixture settled, the number of phases was observed visually. This procedure was performed for all of the screened amines.
# [4] = Separation of switchable solvent from soybean oil with CO2/carbonated water (Examples 2A, 2C)
# Procedure: A 4 mL vial was prepared containing 1.0 mL D2O, 0.5 mL BA and 0.5 mL soybean oil. The vial was shaken thoroughly and allowed to settle, showing a 1.0 mL upper layer (soybean oil and BA) and a 1.0 mL lower layer (D2O). ^1H NMR samples (50 μL) were withdrawn from each layer and mixed with methanol-d4 (0.5 mL) containing a dioxane internal standard (51.5 mM). Another sample was withdrawn from the upper layer for ^1H NMR analysis in CDCl3, because soybean oil is not miscible with methanol. The same volume was discarded from the bottom layer to maintain the initial ratio.
# CO2 was bubbled through the system for 1.5 h, at which time the top layer appeared to have halved in volume. Using the same system, ^1H NMR analysis was again conducted on both layers, the bottom layer in methanol-d4 and the top layer in CDCl3.
# A 1.0 mL portion of the bottom layer was withdrawn and transferred to a new 4.0 mL vial. A magnetic stirrer was added and the vial was stirred at 80° C. for 1 h. Samples were withdrawn from both layers for ^1H NMR analysis in methanol-d4 with reference to the dioxane internal standard.
# The switching behavior of BA in the presence of soybean oil was studied qualitatively and by ^1H NMR spectroscopy as shown in FIG. 11. The top spectrum is that of soy oil. The middle spectrum is that of the upper (organic) phase after the mixing of the BA, soy oil and D2O. This upper phase comprises soy oil and BA. The bottom spectrum is that of the upper (organic) phase after the addition of the CO2 trigger and comprises predominantly soy oil and any residual solvent.
# The most informative ^1H NMR spectra in this experiment were those showing the separation of the soy oil and BA. Based on the integration of the peak corresponding to BA at 3.17 ppm in these spectra, 96% of the amidine was removed from the upper soybean oil layer after switching to its hydrophilic BAB form. Other spectra (not shown), collected in methanol-d4 with a dioxane internal standard, confirmed the switching behavior presented in Example 1 above, showing 11% retention of BA in the aqueous phase after heating.
# It was possible to remove a high percentage of N1,N1,N4,N4-tetraethylbutane-1,4-diamine from the soybean oil be mixing with carbonated water. The percentage removal was 98.65%. In contrast, 96% of BA was removed from the soybean oil.
# [5] = Visual and NMR study of amine switchable hydrophilicity solvents (Example 6)
# Procedure: The following amines were evaluated in this series of experiments: N-ethylpiperidine, N,N-dimethylcyclohexylamine, and N,N-dimethylhexylamine. The sequence of experiments is described for one amine but was performed for all three. The visual observations are described in Table 3. 1,4-Dioxane was used as an internal standard for NMR spectroscopy.
# Amine (1 mL) was combined with D2O (1 mL) in a 10 mL graduated cylinder, which was then capped with a rubber septum. The cylinder was manually shaken and left to settle at room temperature, after which the mixture appeared as two transparent liquid phases. For each amine, this procedure was simultaneously conducted in 3 identical cylinders. From the aqueous (bottom) layer of one of the three cylinders, three 250 μL samples were withdrawn, combined with equal volumes of D2O and dioxane internal standard, and analyzed by ^1H NMR spectroscopy. The spectra were consistent with the amine in the aqueous phase being in its neutral form. The graduated cylinder from which the samples were taken was discarded.
# For each of two remaining graduated cylinders, carbon dioxide was bubbled through the amine/water biphasic mixture, via a syringe needle, for at least one hour. Care was taken to regulate the rate of the CO2 bubbling, so as not to cause significant evaporation of the amine. The mixture changed from a biphasic liquid mixture to a single homogeneous liquid phase. From one of the two graduated cylinders, a 300 μL sample of the homogenous liquid phase was withdrawn and mixed with an equal volume of D2O and a known quantity of dioxane internal standard. […] The graduated cylinder from which the sample was taken was discarded.
# The remaining graduated cylinder, containing the single-phase amine/water/CO2 mixture prepared above, was heated in an oil bath at 80 deg. C for 1 hour. Phase separation was observed. Three 250 μL samples of the aqueous (bottom) layer were withdrawn, combined with equal volumes of D2O and a known quantity of dioxane internal standard, and analyzed by NMR spectroscopy.
# [6] = CO2 bubbling time to phase merge with and without piperazine; settings: 5 mL amine + 5 mL water, room temperature, CO2 100 mL/min
# Procedure: In some embodiments, addition of a small amount of piperazine further increases the rate of conversion of a switchable hydrophilicity solvent to its ionic form. […] In the presence of an absorption activator, specifically 10 wt % piperazine, the time of CO2 bubbling to phase merge was only 20 minutes. Although not experimentally shown, the inventors expect that piperazine would have a similar absorption activating effect for compounds of formula (1). A similar improvement in CO2 capture for aqueous solutions of tertiary amines was reported by Dubois (Chem. Eng. Tech. 32(5): 710 (2009)).
# [7] = listed as N,N-dimethyl-N-cyclohexylamine
smiles,measurement,setting,value
CCCN(C)CCC [methyldipropylamine],miscibility with water after CO2 treatment,[1],single-phase
same,miscibility with water after CO2 treatment,[1]; listed as dipropylmethylamine,became water-miscible
same,loss of amine during heating (excessive volatility),[2],loss of amine
same,miscibility with water under air (absence of CO2),[3],biphasic
same,miscibility with water under air (absence of CO2),[3]; listed as dipropylmethylamine,immiscible with water
"CCCCN(CC)CC [N,N-diethylbutylamine]",miscibility with water after CO2 treatment,[1],single-phase
same,miscibility with water after CO2 treatment,[1]; listed as diethylbutylamine,became water-miscible
same,loss of amine during heating (excessive volatility),[2],loss of amine
same,miscibility with water under air (absence of CO2),[3],biphasic
same,miscibility with water under air (absence of CO2),[3]; listed as diethylbutylamine,immiscible with water
CCN(CC)CC [triethylamine],miscibility with water after CO2 treatment,[1],single-phase
same,miscibility with water after CO2 treatment,"[1]; listed as N,N,N-triethylamine",became water-miscible
same,loss of amine during heating (excessive volatility),[2],loss of amine
same,miscibility with water under air (absence of CO2),[3],biphasic
same,miscibility with water under air (absence of CO2),"[3]; listed as N,N,N-triethylamine",immiscible with water
"CCN(CC)CCCCN(CC)CC [N1,N1,N4,N4-tetraethylbutane-1,4-diamine]",solvent removed from soybean oil after switching to hydrophilic form,[4]; CO2 / carbonated water,98.65%
same,miscibility with soybean oil,[4]; neutral hydrophobic form,miscible with soybean oil
same,miscibility with water after CO2 treatment,[1],single-phase
same,miscibility with water after CO2 treatment,[1]; listed as Et2NCH2CH2CH2CH2NEt2,miscible
same,heating time required to switch back to hydrophobic form,"[2]; amine/water/CO2 mixture, oil bath 80 °C, stirred",5 h
same,miscibility with water under air (absence of CO2),[3],biphasic
same,miscibility with water under air (absence of CO2),[3]; listed as Et2NCH2CH2CH2CH2NEt2,immiscible
"CN(C)C1CCCCC1 [N,N-dimethylcyclohexylamine]",time of CO2 bubbling to form one homogeneous solution,[5]; 1 mL amine + 1 mL D2O,took 45 min to form one
same,number of layers formed without CO2,"[5]; 1 mL amine + 1 mL D2O, room temperature","formed 2 clear,"
same,time of heating to separate into 2 layers,[5]; oil bath 80 deg. C,"after 30 min, solution has"
same,volume of bottom (aqueous) layer after heating,[5]; oil bath 80 deg. C,"clear & colorless, with volume of 1 mL,"
same,volume of top layer after heating,[5]; oil bath 80 deg. C,"oily, with volume of 0.8 mL"
same,miscibility with water after CO2 treatment,[1],single-phase
same,miscibility with water after CO2 treatment,[1]; [7],became water-miscible
same,time of CO2 bubbling to phase merge,[6]; 10 wt % piperazine,20 min
same,time of CO2 bubbling for phase merge,[6]; absence of piperazine,35 min
same,miscibility with water under air (absence of CO2),[3],biphasic
same,miscibility with water under air (absence of CO2),[3]; [7],immiscible with water
